Results on 30 compounds are retold here after publication PMC7802075 (ACS Infectious Diseases, 2020).

In this experiment the target is T1, LmjIPCS (inositol phosphorylceramide synthase from L. major) (Leishmania major, UniProt E9AFX2).
T1 sequence (E9AFX2 1-338): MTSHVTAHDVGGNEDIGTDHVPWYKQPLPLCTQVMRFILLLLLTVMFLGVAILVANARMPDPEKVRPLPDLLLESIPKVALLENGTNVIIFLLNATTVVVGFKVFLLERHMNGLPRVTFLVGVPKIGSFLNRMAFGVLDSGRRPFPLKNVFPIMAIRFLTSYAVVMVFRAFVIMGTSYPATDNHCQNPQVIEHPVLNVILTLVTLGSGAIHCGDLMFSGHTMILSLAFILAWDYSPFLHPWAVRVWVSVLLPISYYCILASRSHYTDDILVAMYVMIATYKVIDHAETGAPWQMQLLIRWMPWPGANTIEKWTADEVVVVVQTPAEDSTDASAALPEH
Nature of the experiment: biochemical. The experiment is classed as biochemical. The arrangement: inhibition: dose or concentration left out as unconfirmed. Conditions: for inhibition: read-out: inhibition LmjIPCS; for inhibition at 20000 µM: read-out: 20mM inhibition LmjIPCS.

Where [1] appears, read: screening of NINDS set, sheet Screen 1.

Structures can show the parent of a compound that is named as a salt. Where two headings read alike, the source gives them in different places.

For `O=C(O)c1cc2cc(Cl)ccc2[nH]1` [5-CHLOROINDOLE-2-CARBOXYLIC ACID], the inhibition under setting [1] turned out to be 9%. In the case of `NC(CO)C(=O)NNCc1ccc(O)c(O)c1O` (stereo not drawn) [BENSERAZIDE], the “20mM inhibition LmjIPCS” value is 43%.

With `Cc1c(OCC(F)(F)F)ccnc1C[S+]([O-])c1nc2ccccc2[nH]1` (stereo not drawn) [LANSOPRAZOLE], the “20mM inhibition LmjIPCS” value (NINDS set screen, compound at 20mM (so in the source)) stood at 23%. As for `CC[N+](CC)(CC)CCOc1cccc(OCC[N+](CC)(CC)CC)c1OCC[N+](CC)(CC)CC` [GALLAMINE TRIETHIODIDE], the inhibition at 20000 µM was -1.76%. Take `N[C@H](Cc1ccccc1)C(=O)O` [D-PHENYLALANINE]: the inhibition under setting [1] is 9%. On to `CC[N+](C)(C)Cc1ccccc1Br` [BRETYLIUM], for which the inhibition is 14%. With `O=c1cccc2n1C[C@@H]1CNC[C@H]2C1` [CYTISINE], the inhibition at 20000 µM was 9%. Take `CN1CCC(OC(c2ccccc2)c2ccccc2)CC1`: the “20mM inhibition LmjIPCS” value worked out at 65%.

For `CC1=NS(=O)(=O)c2cc(Cl)ccc2N1` [DIAZOXIDE], the inhibition at 20000 µM was 5%. As for `CO[C@@]1(NC(=O)CSCC#N)C(=O)N2C(C(=O)O)=C(CSc3nnnn3C)CS[C@@H]21` [CEFMETAZOLE], the inhibition at 20000 µM was 13%. In the case of `CC1=C(/C=C/C(C)=C/C=C/C(C)=C/C=C/C=C(C)/C=C/C=C(C)/C=C/C(=O)[C@]2(C)C[C@@H](O)CC2(C)C)C(C)(C)C[C@H](O)C1` [CAPSANTHIN], the inhibition (NINDS set screen) was 33%. Turning to `O=C(CCCN1CCC2(CC1)C(=O)NCN2c1ccccc1)c1ccc(F)cc1` [SPIPERONE], the inhibition (NINDS set screen) was -6%. Consider `Nc1ccc(S(=O)(=O)Nc2ncccn2)cc1` [SULFADIAZINE], for which the inhibition at 20000 µM came out at 18%. In the case of `CO/N=C(\C(=O)N[C@@H]1C(=O)N2C(C(=O)O)=C(COC(C)=O)CS[C@H]12)c1csc(N)n1` [CEFOTAXIME], the “20mM inhibition LmjIPCS” value was determined as 44%. Turning to `COCCOC(=O)C1=C(C)NC(C)=C(C(=O)OC(C)C)C1c1cccc([N+](=O)[O-])c1` (stereo not drawn) [NIMODIPINE], the “20mM inhibition LmjIPCS” value turned out to be 36%. Regarding `O=C(CCCN1CCN(c2ccccn2)CC1)c1ccc(F)cc1` [AZAPERONE], the “20mM inhibition LmjIPCS” value was determined as 35%. On the same count and under the same terms, then `COc1ccc2[nH]cc(CCN)c2c1` [MEXAMINE], with 25%. Turning to `O=c1[nH]c2cc(Cl)c(Cl)cc2[nH]c1=O` [2,3-DIHYDROXY-6,7-DICHLOROQUINOXALINE], the inhibition came out at 4%.

As to `CCCCN(CCCC)CCCOC(=O)c1ccc(N)cc1` [BUTACAINE], the inhibition (NINDS set screen) turned out to be 19%. `COC(=O)[C@@H]1[C@H]2C[C@H]3c4[nH]c5ccccc5c4CCN3C[C@@H]2CC[C@@H]1O` [YOHIMBINE HYDROCHLORIDE]: the inhibition came out at 23%.

For `CCCCCCCCCCCCCCCC(=O)OC/C=C(C)/C=C/C=C(C)/C=C/C1=C(C)CCCC1(C)C` [RETINYL PALMITATE], where the note is “NINDS set screen”, the inhibition is 18%.

As to `CC(Cc1cccc(C(F)(F)F)c1)NCCOC(=O)c1ccccc1` (stereo not drawn) [BENFLUOREX], the “20mM inhibition LmjIPCS” value is 65%. On to `Nc1nc2c(c(=O)[nH]1)N(C=O)C(CNc1ccc(C(=O)N[C@@H](CCC(=O)O)C(=O)O)cc1)CN2` (stereo partly drawn) [LEUCOVORIN], for which the inhibition (NINDS set screen) was 17%.

As to `NC(=O)N1c2ccccc2CC(=O)c2ccccc21` [OXCARBAZEPINE], the inhibition was -4%.

Consider `CC[C@H](C)C(=O)O[C@H]1C[C@H](O)C=C2C=C[C@H](C)[C@H](CC[C@@H](O)C[C@@H](O)CC(=O)O)[C@H]21` [PRAVASTATIN], for which the inhibition came out at 28%.

As to `CN(C)[C@@H]1C(O)=C(C(N)=O)C(=O)[C@@]2(O)C(O)=C3C(=O)c4c(O)cccc4[C@@](C)(O)[C@H]3[C@H](O)[C@@H]12` [OXYTETRACYCLINE], the inhibition at 20000 µM was determined as 18%. Regarding `N=C(N)NC(=N)Nc1ccccc1` [1-PHENYLBIGUANIDE], under “single concentration 20mM as printed, screening of NINDS set, sheet Screen 1”, the “20mM inhibition LmjIPCS” value is given as 11%. Take `Nc1nc2nc[nH]c2c(=S)[nH]1` [THIOGUANINE]: the inhibition was 6%. Regarding DEGUELIN(-), the “20mM inhibition LmjIPCS” value came to 51%. As for `O=C(O)c1ccccc1OP(=O)(O)O` [FOSFOSAL], the inhibition (NINDS set screen) is 13%.

The inhibition is the change of the read-out against control, counted positive when it falls.
